In US12331040B2 (Karyopharm Therapeutics Inc., priority 2013, dated 2025):
Like-named read-outs stand apart in the source and are kept apart here.

How the values were obtained:
Assay in all cases: MTT cell proliferation assay
Type in all cases: cell-based
MS751 cells = conditions: Homo sapiens, MS751, MS751 cells, approximately 64-72 hours incubation
Method: (§1) The MTT cell proliferation assay was used to study the cytotoxic properties of the compounds. The assay was performed according to the method described by Roche Molecular Biochemicals, with minor modifications. The assay is based on the cleavage of the tetrazolium salt, MTT, in the presence of an electron-coupling reagent. The water-insoluble formazan salt produced must be solubilized in an additional step. Cells grown in a 96-well tissue culture plate were incubated with the MTT solution for approximately 4 hours. After this incubation period, a water-insoluble formazan dye formed. After solubilization, the formazan dye was quantitated using a scanning multi-well spectrophotometer (ELISA reader). […] The cells were seeded at 5,000-10,000 cells in each well of 96-well plate in 100 μL of fresh culture medium and were allowed to attach overnight. The stock solutions of the compounds were diluted in 100 μL cell culture medium to obtain eight concentrations of each test compound, ranging from 1 nM to 30 μM. […] All optical densities were measured at 490 nm using a Vmax Kinetic Microplate Reader (Molecular Devices). In most cases, the assay was performed in duplicate and the results were presented as a mean percent inhibition to the negative control±SE. The following formula was used to calculate the percent of inhibition: Inhibition (%)=(1−(ODo/OD))×100.
(§2) The compounds were tested against MS751, Z138 and 3T3 cells. The MS751 cell line is derived from a metastasis to lymph node of human cervix from a patient diagnosed with squamous cell carcinoma of the cervix. The Z138 cell line is a mature B-cell acute lymphoblastic leukemia cell line derived from a patient with chronic lymphocytic leukemia. 3T3 cells are standard fibroblast cells; they were originally isolated from Swiss mouse embryo tissue.

3T3 cells = conditions: Mus musculus, NIH3T3, approximately 64-72 hours incubation
Method: as §1, §2

Z138 cells = conditions: Homo sapiens, Z-138, Z138 cells, approximately 64-72 hours incubation
Method: as §1, §2

[1] = read-out: MTT Assay IC50 MS-751
[2] = read-out: MTT Assay IC50, MS-751
[3] = read-out: MTT Assay IC50, Z-138

In the case of `CC1(F)CN(C(=O)c2ccc(-c3cc(Cl)c4oc(CNC(=O)/C=C/c5ccc(N)nc5)cc4c3)cc2)C1` [Compound 599, (E)-3-(6-aminopyridin-3-yl)-N-((7-chloro-5-(4-(3-fluoro-3-methylazetidine-1-carbonyl)phenyl)benzofuran-2-yl)methyl)acrylamide], the IC50 (MS751 cells; [1]) is reported as 0.1 to 5 µM, the IC50 (3T3 cells; read-out: MTT Assay IC50 3T3) is reported as 5 to 10 µM and the IC50 (Z138 cells; read-out: MTT Assay IC50 Z-138) is reported as 0.1 to 5 µM.
`Nc1ccc(/C=C/C(=O)NCc2cc3cc(-c4ccc(S(=O)(=O)N5CC(F)C5)cc4)cc(Cl)c3o2)cn1` [Compound 533, (E)-3-(6-aminopyridin-3-yl)-N-((7-chloro-5-(4-(3-fluoroazetidin-1-ylsulfonyl)phenyl)benzofuran-2-yl)methyl)acrylamide] gave an IC50 (MS751 cells; [1]) of 0.1 to 5 µM, an IC50 (3T3 cells; read-out: MTT Assay IC50 3T3) of over 10 µM and an IC50 (Z138 cells; read-out: MTT Assay IC50 Z-138) of 0.1 to 5 µM.
`[2H]C([2H])([2H])Oc1cc(-c2ccc(C(=O)N3CCC(F)(F)CC3)cn2)cc2cc(CNC(=O)/C=C/c3ccc(N)nc3)oc12` [Compound 660, (E)-3-(6-aminopyridin-3-yl)-N-((5-(5-(4,4-difluoropiperidine-1-carbonyl)pyridin-2-yl)-7-(methoxy-d3)benzofuran-2-yl)methyl)acrylamide] was tested, and the IC50 (MS751 cells; [2]) was under 0.1 µM, the IC50 (3T3 cells; read-out: MTT Assay IC50, 3T3) was over 10 µM and the IC50 (Z138 cells; [3]) was under 0.1 µM.
`Nc1ccc(/C=C/C(=O)NCc2nc3cc(-c4ccc(C(=O)N5CC(F)(F)C5)cc4)cc(Cl)c3o2)cn1` [Compound 509, (E)-3-(6-aminopyridin-3-yl)-N-((7-chloro-5-(4-(3,3-difluoroazetidine-1-carbonyl)phenyl)benzo[d]oxazol-2-yl)methyl)acrylamide] was tested, and the IC50 (MS751 cells; [1]) was 0.1 to 5 µM, the IC50 (3T3 cells; read-out: MTT Assay IC50 3T3) was over 10 µM and the IC50 (Z138 cells; read-out: MTT Assay IC50 Z-138) was 0.1 to 5 µM.
`Nc1ccc(/C=C/C(=O)NCc2cc3cc(-c4ccc(C(=O)N5CCC(F)(F)CC5)cc4F)cc(-c4cccc(Cl)c4)c3o2)cn1` [Compound 756, (E)-3-(6-aminopyridin-3-yl)-N-((7-(3-chlorophenyl)-5-(4-(4,4-difluoropiperidine-1-carbonyl)-2-fluorophenyl)benzofuran-2-yl)methyl)acrylamide] showed an IC50 (MS751 cells; [2]) of under 0.1 µM, an IC50 (3T3 cells; read-out: MTT Assay IC50, 3T3) of over 10 µM and an IC50 (Z138 cells; [3]) of under 0.1 µM.
In the case of `Nc1ccc(/C=C/C(=O)NCc2cc3cc(-c4cccc(C(=O)N5CCOCC5)c4)cc(Cl)c3o2)cn1` [Compound 543, (E)-3-(6-Aminopyridin-3-yl)-N-((7-chloro-5-(3-(morpholine-4-carbonyl)phenyl)benzofuran-2-yl)methyl)acrylamide], the IC50 (MS751 cells; [1]) is reported as under 0.1 µM, the IC50 (3T3 cells; read-out: MTT Assay IC50 3T3) is reported as 0.1 to 5 µM and the IC50 (Z138 cells; read-out: MTT Assay IC50 Z-138) is reported as under 0.1 µM.
In the case of `CC1(F)CCN(C(=O)c2ccc(-c3cc(C(F)(F)F)c4oc(CNC(=O)/C=C/c5ccc(N)nc5)cc4c3)nc2)C1` (single isomer, unassigned) [Compound 654, (E)-3-(6-aminopyridin-3-yl)-N-((5-(5-(3-fluoro-3-methylpyrrolidine-1-carbonyl)pyridin-2-yl)-7-(trifluoromethyl)benzofuran-2-yl)methyl)acrylamide], the IC50 (MS751 cells; [1]) is reported as under 0.1 µM, the IC50 (3T3 cells; read-out: MTT Assay IC50 3T3) is reported as over 10 µM and the IC50 (Z138 cells; read-out: MTT Assay IC50 Z-138) is reported as under 0.1 µM.
Compound `CN1CCN(C(=O)c2ccc(-c3cc(Cl)c4oc(CNC(=O)/C=C/c5ccc(N)nc5)cc4c3)cc2)CC1` [Compound 576, (E)-3-(6-aminopyridin-3-yl)-N-((7-chloro-5-(4-(4-methylpiperazine-1-carbonyl)phenyl)benzofuran-2-yl)methyl)acrylamide] has an IC50 (MS751 cells; [1]) of 0.1 to 5 µM, an IC50 (3T3 cells; read-out: MTT Assay IC50 3T3) of over 10 µM and an IC50 (Z138 cells; read-out: MTT Assay IC50 Z-138) of 0.1 to 5 µM.
In the case of `Nc1ccc(/C=C/C(=O)NCc2cc3cc(-c4ccc(C(=O)N5CCNCC5)cn4)cc(C(F)(F)F)c3o2)cn1` [Compound 577, (E)-3-(6-aminopyridin-3-yl)-N-((5-(5-(piperazine-1-carbonyl)pyridin-2-yl)-7-(trifluoromethyl)benzofuran-2-yl)methyl)acrylamide], the IC50 (MS751 cells; [1]) is reported as under 0.1 µM, the IC50 (3T3 cells; read-out: MTT Assay IC50 3T3) is reported as over 10 µM and the IC50 (Z138 cells; read-out: MTT Assay IC50 Z-138) is reported as under 0.1 µM.
Work on `Nc1ccc(/C=C/C(=O)NCc2cc3cc(-c4ccc(C(=O)N5CC6(COC6)C5)cc4)cc(C(F)(F)F)c3o2)cn1` [Compound 611, (E)-N-((5-(4-(2-oxa-6-azaspiro[3.3]heptane-6-carbonyl)phenyl)-7-(trifluoromethyl)benzofuran-2-yl)methyl)-3-(6-aminopyridin-3-yl)acrylamide] yielded an IC50 (MS751 cells; [1]) of under 0.1 µM, an IC50 (3T3 cells; read-out: MTT Assay IC50 3T3) of over 10 µM and an IC50 (Z138 cells; read-out: MTT Assay IC50 Z-138) of under 0.1 µM.
`Cc1noc(-c2ccc(F)cc2)c1-c1cc(C(F)(F)F)c2oc(CNC(=O)/C=C/c3ccc(N)nc3)cc2c1` [Compound 648, (E)-3-(6-aminopyridin-3-yl)-N-((5-(5-(4-fluorophenyl)-3-methylisoxazol-4-yl)-7-(trifluoromethyl)benzofuran-2-yl)methyl)acrylamide] showed an IC50 (MS751 cells; [1]) of 0.1 to 5 µM, an IC50 (3T3 cells; read-out: MTT Assay IC50 3T3) of over 10 µM and an IC50 (Z138 cells; read-out: MTT Assay IC50 Z-138) of 0.1 to 5 µM.
`Nc1ccc(/C=C/C(=O)NCc2cc3cc(-c4ccc(C(=O)N5CCC(F)(F)CC5)cc4)cc(-c4ccc(Cl)cc4)c3o2)cn1` [Compound 742, (E)-3-(6-aminopyridin-3-yl)-N-((7-(4-chlorophenyl)-5-(4-(4,4-difluoropiperidine-1-carbonyl)phenyl)benzofuran-2-yl)methyl)acrylamide] showed an IC50 (MS751 cells; [2]) of 0.1 to 5 µM, an IC50 (3T3 cells; read-out: MTT Assay IC50, 3T3) of over 10 µM and an IC50 (Z138 cells; [3]) of 0.1 to 5 µM.
`CC1(O)CCN(C(=O)c2ccc(-c3cc(Cl)c4oc(CNC(=O)/C=C/c5ccc(N)nc5)cc4c3)cc2)CC1` [Compound 602, (E)-3-(6-aminopyridin-3-yl)-N-((7-chloro-5-(4-(4-hydroxy-4-methylpiperidine-1-carbonyl)phenyl)benzofuran-2-yl)methyl)acrylamide] gave an IC50 (MS751 cells; [1]) of 0.1 to 5 µM, an IC50 (3T3 cells; read-out: MTT Assay IC50 3T3) of over 10 µM and an IC50 (Z138 cells; read-out: MTT Assay IC50 Z-138) of 0.1 to 5 µM.
`CC1(F)CCN(C(=O)c2ccc(-c3cc(C(F)(F)F)c4oc(CNC(=O)/C=C\c5ccc(N)nc5)cc4c3)nc2)C1` (single isomer, unassigned) [Compound 656, (Z)-3-(6-aminopyridin-3-yl)-N-((5-(5-(3-fluoro-3-methylpyrrolidine-1-carbonyl)pyridin-2-yl)-7-(trifluoromethyl)benzofuran-2-yl)methyl)acrylamide] was tested, and the IC50 (MS751 cells; [1]) was 5 to 10 µM, the IC50 (3T3 cells; read-out: MTT Assay IC50 3T3) was over 10 µM and the IC50 (Z138 cells; read-out: MTT Assay IC50 Z-138) was 0.1 to 5 µM.
`Nc1ccc(/C=C/C(=O)NCc2cc3cc(-c4ncc(C(=O)N5CCC(F)(F)CC5)cn4)cc(C(F)(F)F)c3o2)cn1` [Compound 652, (E)-3-(6-aminopyridin-3-yl)-N-((5-(5-(4,4-difluoropiperidine-1-carbonyl)pyrimidin-2-yl)-7-(trifluoromethyl)benzofuran-2-yl)methyl)acrylamide] gave an IC50 (MS751 cells; [1]) of 0.1 to 5 µM, an IC50 (3T3 cells; read-out: MTT Assay IC50 3T3) of over 10 µM and an IC50 (Z138 cells; read-out: MTT Assay IC50 Z-138) of 0.1 to 5 µM.
Work on `O=C(/C=C/c1cccnc1)NCc1cc2cc(-c3ccc(C(=O)N4CCC(F)(F)CC4)cn3)cc(OC(F)(F)F)c2o1` [Compound 752, (E)-N-((5-(5-(4,4-difluoropiperidine-1-carbonyl)pyridin-2-yl)-7-(trifluoromethoxy)benzofuran-2-yl)methyl)-3-(pyridin-3-yl)acrylamide] yielded an IC50 (MS751 cells; [2]) of under 0.1 µM, an IC50 (3T3 cells; read-out: MTT Assay IC50, 3T3) of under 0.1 µM and an IC50 (Z138 cells; [3]) of under 0.1 µM.
`N#Cc1cccc(-c2cc(-c3ccc(C(=O)N4CCC(F)(F)CC4)cc3)cc3cc(CNC(=O)/C=C/c4ccc(N)nc4)oc23)c1` [Compound 732, (E)-3-(6-aminopyridin-3-yl)-N-((7-(3-cyanophenyl)-5-(4-(4,4-difluoropiperidine-1-carbonyl)phenyl)benzofuran-2-yl)methyl)acrylamide] was tested, and the IC50 (MS751 cells; [2]) was under 0.1 µM, the IC50 (3T3 cells; read-out: MTT Assay IC50, 3T3) was 0.1 to 5 µM and the IC50 (Z138 cells; [3]) was under 0.1 µM.
`Nc1ccc(/C=C/C(=O)NCc2cc3cc(-c4ccc(C(=O)N5CCC(F)(F)CC5)cn4)cc(-c4ccc5cnccc5c4)c3o2)cn1` [Compound 672, (E)-3-(6-aminopyridin-3-yl)-N-((5-(5-(4,4-difluoropiperidine-1-carbonyl)pyridin-2-yl)-7-(isoquinolin-6-yl)benzofuran-2-yl)methyl)acrylamide] showed an IC50 (MS751 cells; [2]) of 0.1 to 5 µM, an IC50 (3T3 cells; read-out: MTT Assay IC50, 3T3) of over 10 µM and an IC50 (Z138 cells; [3]) of 0.1 to 5 µM.
`CC1(O)CN(C(=O)c2ccc(-c3cc(C(F)(F)F)c4oc(CNC(=O)/C=C/c5ccc(N)nc5)cc4c3)nc2)C1` [Compound 621, (E)-3-(6-aminopyridin-3-yl)-N-((5-(5-(3-hydroxy-3-methylazetidine-1-carbonyl)pyridin-2-yl)-7-(trifluoromethyl)benzofuran-2-yl)methyl)acrylamide] showed an IC50 (MS751 cells; [1]) of 0.1 to 5 µM, an IC50 (3T3 cells; read-out: MTT Assay IC50 3T3) of over 10 µM and an IC50 (Z138 cells; read-out: MTT Assay IC50 Z-138) of 0.1 to 5 µM.
Compound `Nc1ccc(/C=C/C(=O)NCc2cc3cc(-c4cccc(C(=O)N5CCOCC5)c4)cc(C(F)(F)F)c3o2)cn1` [Compound 717, (E)-3-(6-aminopyridin-3-yl)-N-((5-(3-(morpholine-4-carbonyl)phenyl)-7-(trifluoromethyl)benzofuran-2-yl)methyl)acrylamide] has an IC50 (MS751 cells; [2]) of 0.1 to 5 µM, an IC50 (3T3 cells; read-out: MTT Assay IC50, 3T3) of over 10 µM and an IC50 (Z138 cells; [3]) of under 0.1 µM.
For `Nc1ccc(/C=C/C(=O)NCc2cc3cc(-c4ccc5occc5c4)cc(-c4ccc(F)cc4F)c3o2)cn1` [Compound 759, (E)-3-(6-aminopyridin-3-yl)-N-((7-(2,4-difluorophenyl)-5,5′-bibenzofuran-2-yl)methyl)acrylamide], the IC50 (MS751 cells; [2]) was 0.1 to 5 µM, the IC50 (3T3 cells; read-out: MTT Assay IC50, 3T3) was over 10 µM and the IC50 (Z138 cells; [3]) was under 0.1 µM.
